Laboratory results published in PMC7463999, “Antioxidant, Anti-inflammatory and Neuroprotective Profiles of Novel 1,4-Dihydropyridine Derivatives for the Treatment of Alzheimer’s Disease” (Antioxidants, 2020).
Several values for one entry are separate records, joined by “and”; a condition that tells them apart may be missing. Identical values can stand only once. Like-named read-outs stand apart in the source and are kept apart here.

How the values were obtained:
[1] = test system: primary glial cultures stimulated with LPS; experiment: Nitrite production reduction (Griess) in LPS-stimulated mixed primary glial cultures; format: cell-based, rat; settings: Rattus norvegicus; LPS 1 μg/mL, 24 h pre-incubation, 18 h co-incubation
DPPH reduction assay = settings: DPPH 100 µM, 1 h in the dark
Method: The final solution was incubated during 1 h in the dark. […] Results are expressed as a percentage of DPPH reduction by subtracting blank absorbance (Absblank) to sample absorbance (Abssample) and corrected by control absorbance, (Abscontrol, DPPH alone, as expressed below: % DPPH reduction = [100 − ((Abssample − Absblank) × 100/Abscontrol)](1)
Briefly, the compounds under assay (150 µL) at the desired concentration (1, 10, 60 and 100 µM) in methanol/water (80/20) were added to a solution of DPPH in methanol/water (80/20) (150 µL, 100 µM), in a clear bottom 96-well plate, and the final solution was incubated 1 h in the dark. Then, DPPH absorbance of blank (methanol/water), control
Optima plate-reader (BMG Labtech, Ortenberg, Germany) in duplicate.
Results are expressed as % of absorbance (Abs) reduction of control after subtracting blank absorbance, as expressed
% DPPH reduction = [100 – (Abssample-Absblank) x 100]/Abscontrol

[2] = Blood-brain barrier permeation assay (PAMPA), porcine brain lipid; format: in vitro ADME; settings: for PAMPA Prediction: BBB permeability class from Pe; for Prediction of the BBB passive permeability: PAMPA control compounds
[3] = test system: blood-brain barrier (passive diffusion); experiment: as above; format: in vitro ADME
[4] = test system: neuroblastoma cell line SH-SY5Y; experiment: Cytotoxicity (neurotoxicity) in SH-SY5Y, MTT; settings: 24 h
Method: LD50 in SH-SY5Y and primary glial culture cells
(§1) cell line SH-SY5Y and primary glial cultures. Viability was measured as
(§2) MTT reduction in presence of increasing concentrations of derivatives.
(§3) Values are expressed as LD50 calculated from dose-response curves of four
(§4) different concentrations. Data are expressed as mean  SEM of five
different experiments in triplicate.
(§5) SH-SY5Y or primary glial cells were cultured in 96-well plates for 24 h. Then, cells
(§6) were treated with the compounds at 10, 30 and 100 µM in the corresponding culture media
(§7) with 1 % FBS After 24 h, cell viability was assessed by the MTT-reduction assay. Control
(§8) cells were incubated with the same concentration of DMSO (0.1 % final concentration)
Viability assay by MTT-reduction
(§9) SH-SY5Y, primary glial culture cells and rat hippocampal slices viability was
(§10) measured by the MTT assay [11]. This method is based on the cleavage of the tetrazolium
(§11) ring of MTT by active dehydrogenases, generating a formazan precipitate. At the end of
(§12) the neuroprotection or toxicity experiments, an MTT solution was added to each well to
(§13) reach a final concentration of 0.5 mg/mL. After 2 additional hours of incubation, the
(§14) solution was replaced by 100 or 300 µL of DMSO to solubilize the formazan precipitate.
(§15) in control cells was considered as 100 % of cell survival and used to reference all

primary glial cultures = experiment: Cytotoxicity (gliotoxicity) in primary glial cultures, MTT; settings: 24 h
Method: as §1, §2, §3, §4
different experiments in triplicate.
Mixed glial cultures were obtained from cerebral cortex of 2-5-day-old Sprague-Dawley rats. After removal of blood vessels and meninges, the forebrains were dissociated in DMEM/F12 medium. After mechanical dissociation, cells were plated (3x10^5 cells/ml) in DMEM/F12 medium with 20 % fetal bovine serum (FBS) and 1 % penicillin/streptomycin (10,000 units), at 37 °C and in a 5 % CO2-supplemented air atmosphere. After 5 days, medium was substituted by DMEM/F12 medium with 10 %
FBS. Cells were cultured for 7-10 days before treatment.
as §5, §6, §7, §8
Viability assay by MTT-reduction
as §9
measured by the MTT assay [11].

GSK-3β = GSK-3β (Homo sapiens, UniProt P49841); experiment: GSK-3β inhibition, Kinase-Glo luminescence assay
GSK-3β, sequence (P49841 whole entry): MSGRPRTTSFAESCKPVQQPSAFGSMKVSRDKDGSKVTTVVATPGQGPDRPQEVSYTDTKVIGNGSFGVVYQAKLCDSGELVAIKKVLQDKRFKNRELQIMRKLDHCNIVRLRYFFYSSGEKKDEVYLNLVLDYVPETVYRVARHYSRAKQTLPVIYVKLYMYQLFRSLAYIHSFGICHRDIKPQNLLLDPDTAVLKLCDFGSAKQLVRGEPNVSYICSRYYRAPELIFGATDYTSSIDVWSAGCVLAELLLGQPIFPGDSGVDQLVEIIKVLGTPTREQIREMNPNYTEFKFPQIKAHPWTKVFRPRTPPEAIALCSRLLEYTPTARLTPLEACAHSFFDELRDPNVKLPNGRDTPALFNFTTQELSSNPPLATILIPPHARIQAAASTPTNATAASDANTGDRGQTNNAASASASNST

[5] = Oxygen Radical Absorbance Capacity (ORAC) assay; settings: Trolox equivalents, ORAC of Trolox = 1.0; AAPH, fluorescein
[6] = test system: SH-SY5Y human neuroblastoma cells; experiment: Neuroprotection against okadaic acid (tau hyperphosphorylation), MTT; settings: 18 h; for percentage of protection, okadaic acid toxicity: 1 μM, OA 20 nM; for viability at 1 µM: Homo sapiens, SH-SY5Y, read-out: cell viability (percentage survival), okadaic acid toxicity
Method: (§16) Cells were pre-incubated with the corresponding compound at 1 μM in neuroblastoma culture medium. After 24 h, the medium was removed and replaced with 1% FBS neuroblastoma culture media containing the corresponding compound at 1 µM and the toxic stimuli, namely a mixture of rotenone and oligomycin A (R/O, 30 μM/10 μM, respectively), okadaic acid (OA) at 20 nM or a high concentration of KCl (70 mM). Cells were co-incubated for further 24 h with the R/O mixture or KCl solution, or 18 h with the OA solution. […] Control cells were incubated with the same amount of dimethyl sulfoxide (DMSO) without any drug. After the co-incubation period, cell viability was assessed by the 3-(4,5-dimethylthiazol-2-yl)-2,5-diphenyltetrazolium bromide (MTT) reduction method [56]; basal condition was considered as 100% survival.
(§17) Neuroprotection in the SH-SY5Y neuroblastoma cell line
(§18) A pre- and co-incubation protocol was followed. Cells were pre-incubated with the
(§19) corresponding compound at 1 M in neuroblastoma culture medium. After 24 h, the
(§20) medium was removed and replaced with 1% FBS neuroblastoma culture media
(§21) containing the corresponding compound at 1 µM and the toxic stimuli, namely a mixture
(§22) of rotenone and oligomycin A (30 M/10 M respectively), okadaic acid at 20 nM or a
(§23) high concentration of potassium chloride (70 mM). Cells were co-incubated for further
(§24) 24 h with the rotenone and oligomycin A or potassium chloride solution, or 18 h with the
(§25) okadaic acid solution. Control cells were incubated with the same amount of DMSO
(§26) and reference compounds in the rotenone-oligomycin A, okadaic acid or high
(§27) concentration of potassium models respectively. After the co-incubation period, cell
(§28) viability was assessed by the MTT-reduction method [11] considering basal conditions
Viability assay by MTT-reduction
as §9, §10, §11, §12, §13, §14, §15
(§29) treatments. The percentage of protection was calculated as follows: the percentage of cell
(§30) survival obtained with the toxic stimuli-treated cells subtracted to 100 was normalized to
(§31) 100 % of cell death. The percentage of protection was obtained by subtracting the
(§32) percentage of cell death in presence of the tested compound to 100 %.

[7] = test system: voltage-dependent Ca^2+ channels (VDCC); experiment: Voltage dependent calcium channels blockade assay (Fluo-4, 70 mM K+); format: cell-based, human; settings: compounds at 10 μM, SH-SY5Y, basal = 100% response
Method: Free cytosolic Ca^2+ was measured using the fluorescence Ca^2+ indicator Fluo-4/AM. SH-SY5Y cells were seeded in 96-well black bottom transparent plates at a density of 60,000 cells per well and cultured until they reach confluence. Cells were incubated with the Ca^2+ sensitive dye Fluo-4/AM at 5 µM in Krebs-HEPES buffer (KH) (145 mM NaCl, 4.9 mM KCl, 1.2 mM MgCl2, 2 mM CaCl2, 10 mM HEPES, 11 mM glucose, pH 7.4), and 0.05% pluronic acid, for 1 h at 37 °C in the dark. Then, cells were washed twice with KH solution to remove the excess of probe and compounds in solution were added. Test compounds at 10 µM were incubated 10 min before K^+ 70 mM was applied to trigger cytosolic Ca^2+ increase. Fluorescence was measured in a fluorescence microplate reader (FLUOstar Optima, BMG, Ortenberg, Baden-Wuerttemberg, Germany) at excitation and emission wavelengths 485 and 520 nm, respectively. To normalize Fluo-4 signals, Triton X-100 (5%) and subsequently MnCl2 1 M were applied to the cells to register maximal and minimal fluorescence, respectively. Data were calculated as a percentage of Fluorescence increment with respect to Fmax − Fmin. The percentage of response was calculated considering basal conditions as 100% response.
Voltage dependent Calcium Channel Blockade Assay
Free cytosolic Ca2+ was measured using the fluorescence Ca2+ indicator Fluo-4/AM.
SH-SY5Y cells were seeded in 96-well black bottom transparent plates at a density of 60,000 cells per well until reaching confluence. Cells were incubated with the Ca2+ sensitive dye fluo-4 AM at 5 µM in Krebs-Hepes buffer (KH) (145 mM NaCl, 4.9 mM KCl, 1.2 mM MgCl2, 2 mM CaCl2, 10 mM HEPES, 11 mM glucose, pH 7.4), and 0.05 % pluronic acid, for 1 h at 37 °C in the dark. Then, cells were washed twice with KH solution to remove the excess of probe and compounds in solution were added. Tested compounds at 10 µM were incubated 10 min before K+ 70 mM was applied to evoke the increment of cytosolic Ca2+. The experiments were analyzed at excitation and emission wavelengths of 485 and 520 nm, respectively, and fluorescence was measured in a fluorescence microplate reader (FLUOstar Optima, BMG, Germany). To normalize Fluo-4 signals, Triton X-100 (5 %) and subsequently MnCl2 1 M were applied to cells for registering both maximal and minimal fluorescence, respectively. Data were calculated as % F increment respect to Fmax – Fmin. % of blockade was calculated considering basal conditions as 100 % response.
Then, the donor filter plate was carefully put on the acceptor plate to form a “sandwich”, which was left undisturbed for 4 h at 25 °C. During this time, the compounds diffused from the donor plate through the polar brain lipid membrane (area = 0.28 cm2) into the acceptor plate. After incubation, the donor plate was carefully removed. UV plate reader determined the concentration of compounds and commercial drugs in both acceptor and […]

[8] = test system: SH-SY5Y human neuroblastoma cells; experiment: Neuroprotection against rotenone/oligomycin A (oxidative stress), MTT; settings: 1 μM, rotenone 30 μM / oligomycin A 10 μM, 24 h; for percentage of survival, R/O toxicity: basal = 100%
Method: as §16, §17, §18, §19, §20, §21, §22, §23, §24, §25, §26, §27, §28
Viability assay by MTT-reduction
as §9, §10, §11, §12, §13, §14, §15, §29, §30, §31, §32

[9] = PAMPA, 100 µM, PBS pH 7.4, 4 h at 25 °C, mean ± SEM, read-out: PAMPA Pe
[10] = pH 7.4, PAMPA control compounds, Pe ± SD, read-out: Pe ± SD

SMILES | EC50 [1] [µM] | IC50 (DPPH reduction assay) [µM] | PAMPA Prediction [2] | Papp at 4 h, 100 µM [3, 9] [×10⁻⁶ cm/s] | Prediction of the BBB passive permeability [2] | Papp at 4 h, 100 µM [3, 10] [×10⁻⁶ cm/s] | SH-SY5Y LD50 [4] [µM] | Glial cultures LD50 (primary glial cultures) [µM] | IC50 (GSK-3β) [nM] | Ki (GSK-3β) [nM] | ORAC (T. Eq.) [5] | percentage of protection, okadaic acid toxicity [6] | VDCC % Response [7] | percentage of protection, R/O toxicity [8] [%] | percentage of survival, R/O toxicity [8] [%] | viability at 1 µM [6] [%] | fold more potent GSK-3β inhibitor than 4l (GSK-3β; ratio of IC50 values) [fold]
Cc1[nH]nc2c1C(c1cccc([N+](=O)[O-])c1)C(C#N)=C(N)N2 (stereo not drawn) [4h] | 3.5 ± 0.29 | 24.7 ± 4.03 | CNS± | 2.1 ± 1 | – | – | > 100 | > 100 | 820 ± 200 | 570 | 0.73 T. Eq. and 0.73 ± 0.09 T. Eq. | 34.6% | 75.5 ± 2.7% | – | – | 60.8 | –
O=C1O[C@H]([C@@H](O)CO)C(O)=C1O [Ascorbic ac., Ascorbic acid, reference compound] | – | 61.9 ± 4.96 | – | – | – | – | – | – | – | – | – | – | – | – | – | – | –
Cc1[nH]nc2c1C(c1cccs1)C(C#N)=C(N)N2 (stereo not drawn) [4j] | 5.4 ± 0.27 | 20.9 ± 4.23 | CNS+ | 8.8 ± 4.4 | – | – | > 100 | > 100 | 1740 ± 1000 | 1220 | 2.93 T. Eq. and 2.93 ± 0.15 T. Eq. | – | 60.6 ± 6.8% | – | – | 64 | 5
Cc1[nH]nc2c1C(c1ccc(Cl)cc1)C(C#N)=C(N)N2 (stereo not drawn) [4e] | 4.4 ± 0.35 | 20.9 ± 5.91 | CNS+ | 12.9 ± 3.6 | – | – | > 100 | > 100 | 1940 ± 500 | 1360 | 0.66 T. Eq. and 0.66 ± 0.07 T. Eq. | – | 6.46% and 6.46 ± 1.6% | – | 73.6 | 64.6 | –
CC(=O)[C@H]1CC[C@H]2[C@@H]3CCC4=CC(=O)CC[C@]4(C)[C@H]3CC[C@]12C [Progesterone, reference compound] | – | – | – | – | CNS (+/-) | 2.2 ± 2.8 | – | – | – | – | – | – | – | – | – | – | –
Cc1[nH]nc2c1C(c1ccccc1Cl)C(C#N)=C(N)N2 (stereo not drawn) [4c] | 14.4 ± 2.19 | 23.3 ± 2.6 | CNS+ | 9.4 ± 3.5 | – | – | > 100 | > 100 | 1510 ± 1100 | 1060 | 0.94 T. Eq. and 0.94 ± 0.04 T. Eq. | over 50% | 58.7 ± 6.8% | – | 81.3 | 74 | –
Cn1c(=O)c2c(ncn2C)n(C)c1=O [Caffeine, reference compound] | – | – | – | – | CNS (-) | – | – | – | – | – | – | – | – | – | – | – | –
COCCOC(=O)C1=C(C)NC(C)=C(C(=O)OC(C)C)C1c1cccc([N+](=O)[O-])c1 (stereo not drawn) [Nimodipine, reference compound] | – | – | – | – | – | – | – | – | – | – | – | – | 51.0 ± 2.6% | – | – | – | –

Continued, in another order:

EC50 [1] [µM] | IC50 (DPPH reduction assay) [µM] | PAMPA Prediction [2] | Papp at 4 h, 100 µM [3, 9] [×10⁻⁶ cm/s] | Prediction of the BBB passive permeability [2] | Papp at 4 h, 100 µM [3, 10] [×10⁻⁶ cm/s] | SMILES | SH-SY5Y LD50 [4] [µM] | Glial cultures LD50 (primary glial cultures) [µM] | IC50 (GSK-3β) [nM] | Ki (GSK-3β) [nM] | ORAC (T. Eq.) [5] | percentage of protection, okadaic acid toxicity [6] | VDCC % Response [7] | percentage of protection, R/O toxicity [8] [%] | percentage of survival, R/O toxicity [8] [%] | viability at 1 µM [6] [%] | fold more potent GSK-3β inhibitor than 4l (GSK-3β; ratio of IC50 values) [fold]
10.1 ± 0.72 | 21.6 ± 3.99 | CNS+ | 10.1 ± 5.4 | – | – | Cc1[nH]nc2c1C(c1ccccc1Br)C(C#N)=C(N)N2 (stereo not drawn) [4f] | > 100 | > 100 | 830 ± 300 | 580 | 1.00 ± 0.16 T. Eq. | over 50% | 7.39% and 7.39 ± 2.0% | – | – | – | –
5.7 ± 0.62 | 22.8 ± 6.68 | CNS+ | 4.8 ± 2.6 | – | – | Cc1[nH]nc2c1C(c1ccc(F)cc1)C(C#N)=C(N)N2 (stereo not drawn) [4b] | > 100 | > 100 | 2140 ± 1100 | 1500 | 1.86 T. Eq. and 1.86 ± 0.08 T. Eq. | – | 48.5 ± 7.6% | 62.7 | 84.3 | – | –
22.3 ± 3.42 | 17.1 ± 2.18 | CNS- | 0.7 ± 0.9 | – | – | Cc1[nH]nc2c1C(c1cccnc1)C(C#N)=C(N)N2 (stereo not drawn) [4k] | > 100 | > 100 | 4530 ± 2100 | 3180 | 1.03 ± 0.16 T. Eq. | over 50% | 85.6% and 85.6 ± 5.3% | – | – | – | –
– | – | – | – | CNS (+/-) | 3.3 ± 0.1 | CN1C(C(=O)Nc2ccccn2)=C(O)c2ccccc2S1(=O)=O [Piroxicam, reference compound] | – | – | – | – | – | – | – | – | – | – | –
5.2 ± 1.89 | 25.2 ± 7.91 | CNS+ | 8 ± 1.5 | – | – | Cc1[nH]nc2c1C(c1ccccc1)C(C#N)=C(N)N2 (stereo not drawn) [4a] | > 100 | > 100 | – | – | 0.69 ± 0.04 T. Eq. | – | 72.1 ± 5.8% | – | – | – | –
6.1 ± 1.84 | 23.2 ± 4.31 | CNS± | 3.1 ± 1 | – | – | Cc1[nH]nc2c1C(c1ccc([N+](=O)[O-])cc1)C(C#N)=C(N)N2 (stereo not drawn) [4i] | > 100 | > 100 | 3090 ± 400 | 2170 | 0.96 ± 0.05 T. Eq. | – | 73.2 ± 2.9% | – | – | – | –
